Measurements as given in publication PMC8901636, “Preclinical studies of Flonoltinib Maleate, a novel JAK2/FLT3 inhibitor, in treatment of JAK2^V617F-induced myeloproliferative neoplasms” (Blood Cancer Journal, 2022).
Read-outs that look alike come from different tables or passages of the source.

How the values were obtained:
[1] = molecular target: JAK1 (Homo sapiens, UniProt P23458); experiment: In vitro kinase assay; details: read-out: JAK1 Enzyme IC50
[2] = test system: HEL; experiment: MTT assay for cell proliferation; format: cell-based; details: Homo sapiens, 72 h, read-out: IC50(μM) ± SD, tumor cell proliferation
Description: (§1) For in vitro inhibition assays, cells were seeded in 96-well culture plates with a density of 15,000–20,000 cells/well after the cells reached 70–90% confluence. […] MTT (3-(4, 5-dimethylthiazol-2-yl)-2, 5-diphenyltetrazolium bromide) (Cat. No. 1334GR001; BioFroxx) assay was conducted in order to examine viability. The IC50 values were fitted using GraphPad Prism 7.0.

[3] = PK and tissue distribution after single oral administration in Ba/F3-EPOR-JAK2^V617F tumor-bearing mice; format: in vivo; details: for Kp: spleen and plasma, po
[4] = test system: Ba/F3-EPOR-JAK2^V617F cells; experiment: PD study after repeated administration in Ba/F3-EPOR-JAK2^V617F tumor-bearing mice; format: in vivo
Description: For Ba/F3-EPOR-JAK2^V617F driven malignant model after repeated administration, tumor-bearing mice were randomly divided into 8 groups on the 10th day. Mice were sacrificed at 0, 0.25, 0.5, 1, 4, 8, 12, and 24 hours after the last oral administration, and tissue samples were harvested to determine the distribution of FM and PK parameters by UFLC-MS/MS. For PD studies, we weighed the spleen, and analyzed the ratio of GFP^+ in the spleen and PB by flow cytometry, and test the downstream pathway protein p-STAT5 (Y694, Cat. No. Ab32364) via Western Blot.
With the decrease of drug concentration, the level of p-STAT5 increased to a certain extent, but 12 hours after administration, the level of p-STAT5 still decreased (Fig. 5C). […] 71 ± 7. 91%, respectively. In addition, the weight of spleen was 267.2 ± 56.8 mg in the untreated group and 167.5 ± 52.9 mg in the repeated administration groups (12 hours after the last administration) (Fig. 5D and Fig. S4E).

[5] = test system: Ba/F3-JAK2^V617F; experiment: MTT assay for cell proliferation; format: cell-based, Murine; details: Mus musculus, 72 h, read-out: IC50(μM) ± SD, tumor cell proliferation
Description: as §1

[6] = BALB/c nude, mouse, brain, oral, 30 mg/kg, single, read-out: FM concentration, Brain
[7] = BALB/c nude, mouse, heart, oral, 30 mg/kg, single, read-out: FM concentration, Heart
[8] = BALB/c nude, mouse, intestine, oral, 30 mg/kg, single, read-out: FM concentration, Intestine
[9] = BALB/c nude, mouse, kidney, oral, 30 mg/kg, single, read-out: FM concentration, Kidney
[10] = BALB/c nude, mouse, liver, oral, 30 mg/kg, single, read-out: FM concentration, Liver
[11] = BALB/c nude, mouse, lung, oral, 30 mg/kg, single, read-out: FM concentration, Lung
[12] = BALB/c nude, mouse, muscle, oral, 30 mg/kg, single, read-out: FM concentration, Muscle
[13] = BALB/c nude, mouse, plasma, oral, 30 mg/kg, single, read-out: FM concentration, Plasma
[14] = BALB/c nude, mouse, spleen, oral, 30 mg/kg, single, read-out: FM concentration, Spleen
[15] = BALB/c nude, mouse, stomach, oral, 30 mg/kg, single, read-out: FM concentration, Stomach
[16] = BALB/c nude, mouse, Plasma, single oral 30 mg/kg
[17] = BALB/c nude, mouse, spleen, single oral 30 mg/kg
[18] = before the last administration, 30 mg/kg repeated

Sequence of JAK1 (P23458 whole entry): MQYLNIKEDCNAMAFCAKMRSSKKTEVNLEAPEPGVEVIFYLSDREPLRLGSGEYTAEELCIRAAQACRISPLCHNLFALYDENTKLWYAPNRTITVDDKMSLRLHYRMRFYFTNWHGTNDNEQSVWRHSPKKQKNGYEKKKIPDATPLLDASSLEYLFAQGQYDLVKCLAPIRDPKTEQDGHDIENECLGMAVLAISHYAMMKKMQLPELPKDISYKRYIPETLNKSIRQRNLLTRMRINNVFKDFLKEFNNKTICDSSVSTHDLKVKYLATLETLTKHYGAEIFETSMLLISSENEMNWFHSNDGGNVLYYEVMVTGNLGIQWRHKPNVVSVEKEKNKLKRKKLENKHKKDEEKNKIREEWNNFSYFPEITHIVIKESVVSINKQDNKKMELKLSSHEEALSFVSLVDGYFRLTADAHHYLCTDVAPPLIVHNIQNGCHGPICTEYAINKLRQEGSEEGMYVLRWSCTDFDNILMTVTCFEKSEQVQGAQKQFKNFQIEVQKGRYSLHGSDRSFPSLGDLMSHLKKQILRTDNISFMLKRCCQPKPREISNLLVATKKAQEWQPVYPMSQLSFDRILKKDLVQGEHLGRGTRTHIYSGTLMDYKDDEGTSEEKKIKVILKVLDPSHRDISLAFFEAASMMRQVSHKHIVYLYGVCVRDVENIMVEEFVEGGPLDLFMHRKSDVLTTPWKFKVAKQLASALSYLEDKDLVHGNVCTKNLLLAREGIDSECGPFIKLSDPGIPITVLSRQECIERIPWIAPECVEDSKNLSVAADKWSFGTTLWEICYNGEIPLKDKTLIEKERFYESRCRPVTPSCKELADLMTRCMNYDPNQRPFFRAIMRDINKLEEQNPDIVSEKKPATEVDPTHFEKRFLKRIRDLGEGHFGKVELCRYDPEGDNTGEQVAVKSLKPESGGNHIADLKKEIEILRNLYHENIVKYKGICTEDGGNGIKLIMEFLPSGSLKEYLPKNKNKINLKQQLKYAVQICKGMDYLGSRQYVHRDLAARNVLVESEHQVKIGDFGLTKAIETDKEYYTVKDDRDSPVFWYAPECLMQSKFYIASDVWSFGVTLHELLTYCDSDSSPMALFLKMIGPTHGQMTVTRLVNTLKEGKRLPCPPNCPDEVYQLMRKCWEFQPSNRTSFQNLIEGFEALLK

Cc1cnc(Nc2ccc(N3CCC(N(C)CCO)CC3)c(F)c2)nc1-c1cnn(C(C)C)c1 [FM, 2-((1-(2-fluoro-4-((4-(1-isopropyl-1H-pyrazol-4-yl)-5-methylpyrimidin-2-yl)amino)phenyl)piperidin-4-yl)(methyl)amino)ethan-1-ol]
IC50 [1]: 690 nM | IC50 [2]: 0.26 ± 0.2 µM | drug concentration in the spleen ([3]; 8 h after single oral 30 mg/kg, by calculation): 2416 ± 1657 nmol/kg | concentration at 0.5 h [3, 6]: 354 ± 77.1 ng/g | concentration at 2 h [3, 6]: 309 ± 40.5 ng/g | concentration at 4 h [3, 6]: 157 ± 58.3 ng/g | concentration at 8 h ([3]; BALB/c nude, mouse, brain, oral, 30 mg/kg, single, 8 h, read-out: FM concentration, Brain): 38.4 ± 28.5 ng/g | concentration at 0.5 h [3, 7]: 3390 ± 184 ng/g | concentration at 2 h [3, 7]: 1650 ± 381 ng/g | concentration at 4 h [3, 7]: 864 ± 418 ng/g | concentration at 8 h ([3]; BALB/c nude, mouse, heart, oral, 30 mg/kg, single, 8 h, read-out: FM concentration, Heart): 199 ± 145 ng/g | concentration at 0.5 h [3, 8]: 14900 ± 11400 ng/g | concentration at 2 h [3, 8]: 6250 ± 3230 ng/g | concentration at 4 h [3, 8]: 8490 ± 2240 ng/g | concentration at 8 h ([3]; BALB/c nude, mouse, intestine, oral, 30 mg/kg, single, 8 h, read-out: FM concentration, Intestine): 4360 ± 4050 ng/g | concentration at 0.5 h [3, 9]: 12100 ± 1260 ng/g | concentration at 2 h [3, 9]: 6220 ± 855 ng/g | concentration at 4 h [3, 9]: 2410 ± 1010 ng/g | concentration at 8 h ([3]; BALB/c nude, mouse, kidney, oral, 30 mg/kg, single, 8 h, read-out: FM concentration, Kidney): 1050 ± 767 ng/g | concentration at 0.5 h [3, 10]: 12800 ± 3700 ng/g | concentration at 2 h [3, 10]: 6530 ± 2920 ng/g | concentration at 4 h [3, 10]: 3820 ± 1480 ng/g | concentration at 8 h ([3]; BALB/c nude, mouse, liver, oral, 30 mg/kg, single, 8 h, read-out: FM concentration, Liver): 845 ± 662 ng/g | concentration at 0.5 h [3, 11]: 11600 ± 2960 ng/g | concentration at 2 h [3, 11]: 3820 ± 739 ng/g | concentration at 8 h ([3]; BALB/c nude, mouse, lung, oral, 30 mg/kg, single, 8 h, read-out: FM concentration, Lung): 603 ± 481 ng/g | concentration at 0.5 h [3, 12]: 633 ± 619 ng/g | concentration at 2 h [3, 12]: 217 ± 116 ng/g | concentration at 4 h [3, 12]: 152 ± 73.9 ng/g | concentration at 8 h ([3]; BALB/c nude, mouse, muscle, oral, 30 mg/kg, single, 8 h, read-out: FM concentration, Muscle): 43.1 ± 42 ng/g | concentration at 0.25 h [3, 13]: 653 ± 108 ng/mL | concentration at 0.5 h [3, 13]: 857 ± 74.5 ng/mL | concentration at 1 h [3, 13]: 922 ± 302 ng/mL | concentration at 2 h [3, 13]: 458 ± 88.2 ng/mL | concentration at 4 h [3, 13]: 248 ± 80.8 ng/mL | concentration at 8 h ([3]; BALB/c nude, mouse, plasma, oral, 30 mg/kg, single, 8 h, read-out: FM concentration, Plasma): 59.9 ± 50 ng/mL | concentration at 12 h ([3]; BALB/c nude, mouse, plasma, oral, 30 mg/kg, single, 12 h, read-out: FM concentration, Plasma): 61.4 ± 64.3 ng/mL | Kp ([3]; BALB/c nude, mouse, 30 mg/kg, AUC(0-24h) of spleen higher than that of plasma, single oral 30 mg/kg): 15.3 | Kp ([3]; BALB/c nude, mouse, 30 mg/kg, single oral 30 mg/kg, read-out: Cmax of spleen higher than that of plasma): 11.7 | concentration at 0.25 h [3, 14]: 5630 ± 710 ng/g | concentration at 0.5 h [3, 14]: 10400 ± 2660 ng/g | concentration at 1 h [3, 14]: 9930 ± 3970 ng/g | concentration at 2 h [3, 14]: 8530 ± 1510 ng/g | concentration at 4 h [3, 14]: 3810 ± 1880 ng/g | concentration at 8 h ([3]; BALB/c nude, mouse, spleen, oral, 30 mg/kg, single, 8 h, read-out: FM concentration, Spleen): 1410 ± 968 ng/g | concentration at 12 h ([3]; BALB/c nude, mouse, spleen, oral, 30 mg/kg, single, 12 h, read-out: FM concentration, Spleen): 358 ± 228 ng/g | concentration at 24 h ([3]; BALB/c nude, mouse, spleen, oral, 30 mg/kg, single, 24 h, read-out: FM concentration, Spleen): 32.6 ± 13.3 ng/g | concentration at 8 h ([3]; BALB/c nude, mouse, spleen, 8 h after single oral 30 mg/kg, converted, read-out: drug concentration in the spleen): ~2420 nM | concentration at 12 h ([3]; BALB/c nude, mouse, spleen, 12 h after single oral 30 mg/kg, converted, read-out: concentration of FM in spleen): ~614 nM | concentration at 0.5 h [3, 15]: 30300 ± 18400 ng/g | concentration at 2 h [3, 15]: 30500 ± 29000 ng/g | concentration at 4 h [3, 15]: 17700 ± 10900 ng/g | concentration at 8 h ([3]; BALB/c nude, mouse, stomach, oral, 30 mg/kg, single, 8 h, read-out: FM concentration, Stomach): 6840 ± 10500 ng/g | AUC(0-t) [3, 16]: 2990 ± 558 ng·h/mL | Cmax [3, 16]: 1030 ± 174 ng/mL | half-life [3, 16]: 2.31 ± 0.79 h | Cmax [3, 17]: 12000 ± 3470 ng/g | half-life [3, 17]: 2.71 ± 0.51 h | Cl ([3]; Plasma, single oral 30 mg/kg): 168.7 ± 36.2 mL/min/kg | Vdss ([3]; Plasma, single oral 30 mg/kg): 32.84 ± 10.12 L/kg | GFP^+ tumor cells in PB ([4]; 12 hours after the 17th administration, 30 mg/kg): 11.77 ± 5.5% | GFP^+ tumor cells in PB [4, 18]: 19.75 ± 12.93% | GFP^+ tumor cells in spleen [4, 18]: 17.12 ± 8.15% | weight of spleen ([4]; repeated administration, 12 hours after the last administration, untreated 267.2 ± 56.8 mg): 167.5 ± 52.9 mg | p-STAT5 level down-regulated by ([4]; spleen, 8 hours after administration, 30 mg/kg repeated): 43.80 ± 1.59% | IC50 [5]: 0.2 ± 0.01 µM
